Reference: patent US9658235B2, “Pi-extended acedan derivatives, their application for two-photon microscopy imaging, and their application for two-photon microscopy imaging of amyloid-beta plaque in an alzheimer's disease animal model” (POSTECH ACADEMY-INDUSTRY FOUNDATION, priority 2015, dated 2017)

Tests used:
[1] = conventional acedan; cited from earlier work
[2] = Absorption properties of two-photon absorbing fluorophores; type: physicochemical; settings: 10 μM in ethanol solution (1%-DMSO included)
Description: More specifically, in order to determine the absorption properties of two-photon absorbing fluorophores, the inventors of the present invention filled quartz cells (114F-QS, Hellma Analytics) having a path length of 1 cm with an ethanol solution (1%-DMSO included) which included the compounds 4a to 7a (R1=R2=Me) having a concentration of 10 μM to measure absorption spectra. […] The absorption spectra were measured using an HP 8453 UV/Vis spectrophotometer.
Thereafter, a molar extinction coefficient (ε(Lmol^−1 cm^−1)) in a maximum absorption wavelength was calculated with respect to an ethanol solution (1%-DMSO included) which included the compounds 4a to 8a (R1=R2=Me) having a concentration of 10 μM, and the result is shown in FIG. 6. Referring to FIG. 6, it may be determined that the molar extinction coefficients (ε>11,500) for the two-photon absorbing fluorophores (particularly, compounds 4a to 8a (R1=R2=Me)) according to the embodiment of the present invention were larger than that (ε=10,700) of acedan known as a conventional two-photon absorbing fluorophore.

[3] = Fluorescent properties (emission spectra, fluorescence quantum yield); type: physicochemical
Description: More specifically, in order to determine the fluorescent properties of two-photon absorbing fluorophores, the inventors of the present invention filled quartz cells having a path length of 1 cm with an ethanol solution (1%-DMSO included) which included the compounds 4a to 7a (R1=R2=Me) having a concentration of 10 μM to measure fluorescence spectra (fluorescence spectra were measured using a photon technical international fluorescence system). The results thereof with normalized fluorescence as a y-axis and light wavelength as an x-axis are shown in FIG. 1(B) and with fluorescence intensity as a y-axis and light wavelength as an x-axis are shown in FIG. 7.
Quartz cells having a path length of 1 cm were filled with a dichloromethane, acetonitrile, ethanol (1%-DMSO included) and PBS buffer solution (10 mM, pH 7.4, 0.1%-DMSO included) which included compound 4a (R1=R2=Me) having a concentration of 1 μM to measure fluorescence spectra.
Further, the fluorescence quantum yield was measured with respect to an ethanol solution including the compounds 4a to 8a (R1=R2=Me) having a concentration of 10 μM, and the result is shown in FIG. 6. Acedan which is mainly used was used as a comparative compound (fluorescence quantum yield, ΦF=0.52, measured in ethanol solution).

amyloid beta 42 (Aβ 42) = biological target: T1, amyloid beta 42 (Aβ 42) (Homo sapiens, UniProt P05067); experiment: Fluorescence spectra according to the presence of amyloid beta 42 and BSA; type: binding; settings: 10 μM compound
T1 construct: according to the presence of amyloid beta 42 (Aβ 42)
T1 sequence (P05067 672-713 limits assumed): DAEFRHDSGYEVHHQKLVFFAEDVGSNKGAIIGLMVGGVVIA
Description: Quartz cells having a path length of 1 cm were filled with a PBS buffer solution (10 mM, pH 7.4, 0.1%-DMSO included) or an artificial cerebrospinal fluid (NaCl (124 mM), KCl (3 mM), NaH2PO4 (1.25 mM), MgCl2 (1 mM), NaHCO3 (36 mM), D-gluocose (10 mM), CaCl2(2 mM), 95%-O2, 5%-CO2 (by bubbler), aCSF and 1%-DMSO included) which included the compound 8a (R1=R2=Me) having a concentration of 10 μM to measure fluorescence spectra according to the presence of amyloid beta 42 (Aβ 42) and bovine serum albumin (BSA, 20 μg/mL), and the result is shown in FIG. 4. Referring to FIG. 4, it may be determined that the fluorescence intensity of the compound 8a (R1=R2=Me) was low when an amyloid beta plaque was absent, and the fluorescence intensity of the compound 8a (R1=R2=Me) increased when an amyloid beta plaque was present. […] In order to determine the fluorescent properties (y-axis) of the compound 8a (R1=R2=Me) according to the concentration of an amyloid beta plaque (x-axis), quartz cells having a path length of 1 cm were filled with a PBS buffer solution (1%-DMSO included) which included the compound 8a (R1=R2=Me) having a concentration of 10 μM and an amyloid beta plaque (0-50 μM) to measure fluorescence spectra, and the result is shown in FIG. 14.

SHSY5Y cells = experiment: MTT cytotoxicity; type: cell-based; settings: 1 hour, described as low cytotoxicity
Description: In order to determine the cytotoxicity of cells treated with the compound 4a (R1=R2=Me) and the compound 8a (R1=R2=Me), the metabolic capability of a formazan of SHSY5Y cells with respect to […] (MTT) was evaluated.
More specifically, the cells (100 μL/well) were prepared with the density of about 5×10^3 cells in each well on a 96-well plate. The cells were treated with the compound 4a (R1=R2=Me) and the compound 8a (R1=R2=Me) each having concentrations of 1, 20 and 50 μM, was incubated for 1 hour, were cleaned using a PBS buffer solution, and 25 μL of a MTT solution (5 mg/mL) was added to each well. After the cells were incubated at 37° C. for 2 hours, the media was removed, and a formazan crystal was dissolved in DMSO to measure absorbance using a plate reader. […] Accordingly, it may be determined that the cytotoxicity of the compound 4a (R1=R2=Me) and the compound 8a (R1=R2=Me) was low to be suitable for obtaining a two-photon microscope image in tissue and an animal model.

[4] = Fluorescence intensity according to pH; type: physicochemical; settings: 10 μM, aqueous solution (1%-DMSO), pH 4 to 10, excitation 500 nm
Description: In order to determine the fluorescent properties (y-axis) of the compound 8a (R1=R2=Me) according to the pH (x-axis), quartz cells having a path length of 1 cm were filled with an aqueous solution (1%-DMSO included) which has a pH in the range of 4 to 10 and included the compound 8a (R1=R2=Me) having a concentration of 10 μM to measure the fluorescence spectrum, and the result is shown in FIG. 15.

[5] = Solubility in PBS buffer solution from absorption spectra; type: physicochemical; settings: PBS 10 mM, pH 7.4, DMSO of less than 1%; concentrations of 1, 5 and 10 μM
Description: Quartz cells having a path length of 1 cm were filled with a PBS buffer solution (10 mM, pH 7.4, DMSO of less than 1% included) which included the compounds 4a to 7a (R1=R2=Me) each having concentrations of 1, 2, 5 and 10 μM to measure absorption spectra.
Quartz cells having a path length of 1 cm were filled with a PBS buffer solution (10 mM, pH 7.4, DMSO of less than 1% included) which included the compound 8a (R1=R2=Me) each having concentrations of 1, 5, 10, 15 and 20 μM to measure absorption spectra.

amyloid beta plaque = biological target: T2, amyloid beta plaque (Homo sapiens, UniProt P05067); experiment: In vivo two-photon microscope imaging of amyloid beta plaque in an Alzheimer's disease animal model; parameters: species or system 5XFAD mice
T2 construct: tissue The Jackson Laboratory stock no; 006554; host or cells: brain of living 5XFAD (Tg6799) mice, 13 months old, imaged through a cranial window
T2 sequence (P05067 672-713 limits assumed): as above
Description: In order to observe the two-photon microscope image of tissue of mice treated with the compound 8a (R1=R2=Me), 5XFAD mice (13-months-old, The Jackson Laboratory, Bar Harbor, Me., USA; stock no. 006554, Tg6799) were used. An amyloid beta plaque is shown as a typical characteristic of Alzheimer's disease.
All animal experiments were performed after the approval from an animal testing ethics committee. In an open-skull craniotomy surgery, imaging was performed after treatment with the compound 8a (R1=R2=Me) and MeO-X04 which is a well-known amyloid beta plaque fluorophore. The mice were fixed on a stereotactic heating surface using Zoletil 50 (Virbac; intramuscular injection, 0.03 mL) as an anesthetic agent (Seoul, Republic of Korea, 37° C.). After a scalp and periosteum were removed, a hole having a diameter of 3 mm was formed at a distance 1 mm from the bregma and 1 mm from the sagittal suture of a skull, a bone was removed, and then a round coverslip was adhered thereto using Loctite 454. The exposed portion of the skull was covered with a dental acrylic, and dexamethasone (0.2 mg/kg) and carprofen (5 mg/kg) which are anti-inflammatory drugs were used before and after the surgery.
A product manufactured by Carl Zeiss Microscopy GmbH (Oberkochen, Germany; model no. LSM 7 MP two-photon laser scanning microscope system) was used as a two-photon microscope. […] Further, the photo-bleaching process images and the relative fluorescence intensity in […] images before and after irradiation with a light source with respect to the compound 8a (R1=R2=Me) and a complex compound of an amyloid beta plaque are shown in FIG. 18. Referring to FIG. 18, it may be determined that the fluorescence intensity of the compound 8a (R1=R2=Me) decreased about 40% when irradiated with a two-photon light source for 35 minutes.

## CC(=O)c1ccc2cc(N(C)C)ccc2c1 [acedan, 1-(6-dimethylaminonaphthalene-2-yl) ethanone]
[1]
  two-photon absorption efficiency value: ~100 GM
[2]
  molar extinction coefficient (ε) in a maximum absorption wavelength: 10,700 Lmol^−1 cm^−1
[3]; measured in ethanol solution, comparative compound
  fluorescence quantum yield ΦF: 0.52

## CN(C)c1ccc2cc3c(cc2c1)OCC(C=C(C#N)C#N)=C3 [compound 8a, 2-(((8-dimethylamino)-2H-benzo[g]chromene-3-yl)methylene)malononitrile]
Amyloid beta 42 (Aβ 42); Aβ42 20 μM, PBS (pH 7.4) or aCSF, low when plaque absent
  fluorescence intensity when an amyloid beta plaque was present: increased
Amyloid beta 42 (Aβ 42); Aβ42 versus BSA 20 μg/mL, PBS or aCSF
  selective detection of amyloid beta plaque: selectively detected an amyloid beta plaque
SHSY5Y cells; 1 to 50 μM
  cytotoxicity (apoptosis): 20%
[4]
  fluorescence intensity according to pH: low regardless of pH
[5]
  solubility in a PBS buffer solution: sufficient solubility
Amyloid beta plaque; 30 mg/kg intraperitoneal, 13-month-old 5XFAD mice, frontal cortex, 1,000 nm, depth to 300 μm
  visualization of amyloid beta plaque in animal model with Alzheimer's disease: selectively visualize an amyloid beta plaque
Amyloid beta plaque; 30 mg/kg intraperitoneal, 24 hours before imaging, 1,000 nm, MeO-X04 10 mg/kg, 780 nm
  conformity of image with MeO-X04 image: significantly high
Amyloid beta plaque; complex with amyloid beta plaque, tissue depth 50 μm, two-photon light source for 35 minutes
  decrease of fluorescence intensity (photo-bleaching): about 40%

## CN(C)c1ccc2cc3c(cc2c1)OC1CCCC(=O)C1=C3 (stereo not shown) [compound 4a, 8-(dimethylamino)-2,3,4a-tetrahydro-1H-benzo[b]xanthene-1-one]
SHSY5Y cells; 1 μM and 20 μM
  cytotoxicity (apoptosis): 20%
[3]; 1 μM in dichloromethane, acetonitrile, ethanol and PBS buffer solution
  maximum emission wavelength (λem) compared with acedan: longer than that of conventional acedan
